{"source": "patent US6943197B2", "about": "“Topical administration of pharmacologically active bases in the treatment of inflammatory dermatoses” (priority 2002, dated 2005)", "origin": "cited, not measured here", "key": {"[1]": {"details": "for pH of Aqueous Solution (alkalinity in words): no concentration, result in words"}, "[2]": {"details": "forms Ca(OH)2"}}, "note": "Where two headings read alike, the source gives them in different places."}
{"smiles": "O.O.O=P([O-])([O-])O.[Na+].[Na+]", "note": "[Sodium phosphate, dibasic, dihydrate]", "values": [{"measurement": "pH of Aqueous Solution", "setting": "[1]; concentration not given", "result": "˜9.5"}]}
{"smiles": "CC(=O)[O-].[Na+]", "note": "[Sodium acetate, anhydrous]", "values": [{"measurement": "pH of Aqueous Solution", "setting": "[1]; 0.1 N", "result": "˜8.9 (0.1 N)"}]}
{"smiles": "N.N.O=P(O)(O)O", "note": "[Ammonium phosphate, dibasic]", "values": [{"measurement": "pH of Aqueous Solution", "setting": "[1]; concentration not given", "result": "˜8"}]}
{"smiles": "O=C([O-])CC(O)(CC(=O)[O-])C(=O)[O-].[K+].[K+].[K+]", "note": "[Potassium citrate]", "values": [{"measurement": "pH of Aqueous Solution", "setting": "[1]; concentration not given", "result": "˜8.5"}]}
{"smiles": "O=B[O-].[Na+]", "note": "[Sodium metaborate]", "values": [{"measurement": "pH of Aqueous Solution (alkalinity in words)", "setting": "[1]", "result": "Strongly alkaline"}]}
{"smiles": "CC(=O)[O-].O.O.O.[Na+]", "note": "[Sodium acetate, tribydrate]", "values": [{"measurement": "pH of Aqueous Solution", "setting": "[1]; 0.1 N", "result": "8.9 (0.1 N)"}]}
{"smiles": "O.O.O.O.O.O.O.O.O.O.O.O.O=P([O-])([O-])O.[Na+].[Na+]", "note": "[Sodium phosphate, dibasic, dodecahydrate]", "values": [{"measurement": "pH of Aqueous Solution", "setting": "[1]; concentration not given", "result": "˜9.5"}]}
{"smiles": "O.O.O.O.O.O.O.O.O.O.O.O.O=P([O-])([O-])[O-].[Na+].[Na+].[Na+]", "note": "[Sodium phosphate, tribasic dodecahydrate]", "values": [{"measurement": "pH of Aqueous Solution", "setting": "[1]; 1.0% (1%)", "result": "11.9 (1.0%)"}]}
{"smiles": "O=P([O-])([O-])O.[Na+].[Na+]", "note": "[Sodium phosphate, dibasic]", "values": [{"measurement": "pH of Aqueous Solution", "setting": "[1]; concentration not given", "result": "˜9.5"}]}
{"smiles": "[O]=[Ca]", "note": "[Calcium oxide]", "values": [{"measurement": "Solubility in water", "setting": "[2]", "result": "Soluble in water, Form"}]}
{"smiles": "O=C([O-])[O-].[Na+].[Na+]", "note": "[Sodium carbonate anhydrous]", "values": [{"measurement": "pH of Aqueous Solution", "setting": "[1]; concentration not given", "result": "˜11.6"}]}
{"smiles": "[O]=[Mg]", "note": "[Magnesium oxide]", "values": [{"measurement": "pH of Aqueous Solution", "setting": "[1]; saturated solution in water", "result": 10.3}]}
{"smiles": "O.O.O.O.O.O.O.O=P([O-])([O-])O.[Na+].[Na+]", "note": "[Sodium phosphate, dibasic, heptahydrate]", "values": [{"measurement": "pH of Aqueous Solution", "setting": "[1]; concentration not given", "result": "˜9.5"}]}
{"smiles": "O=P([O-])([O-])O.[K+].[K+]", "note": "[Potassium phosphate, dibasic]", "values": [{"measurement": "pH of Aqueous Solution (alkalinity in words)", "setting": "[1]", "result": "Aqueous solution is slightly"}]}
